Experimental findings from article PMC12086361, “Downstream Signaling of Muscarinic M4 Receptors Is Regulated by Receptor Density and Cellular Environment” (Pharmacology Research & Perspectives, 2025) are described below.

The structures appear in SMILES notation.

This assay has as its target T1, human M4 receptor (hM4) (Homo sapiens, UniProt P08173).
T1 construct: gene CHRM4
T1 sequence (P08173 1-479): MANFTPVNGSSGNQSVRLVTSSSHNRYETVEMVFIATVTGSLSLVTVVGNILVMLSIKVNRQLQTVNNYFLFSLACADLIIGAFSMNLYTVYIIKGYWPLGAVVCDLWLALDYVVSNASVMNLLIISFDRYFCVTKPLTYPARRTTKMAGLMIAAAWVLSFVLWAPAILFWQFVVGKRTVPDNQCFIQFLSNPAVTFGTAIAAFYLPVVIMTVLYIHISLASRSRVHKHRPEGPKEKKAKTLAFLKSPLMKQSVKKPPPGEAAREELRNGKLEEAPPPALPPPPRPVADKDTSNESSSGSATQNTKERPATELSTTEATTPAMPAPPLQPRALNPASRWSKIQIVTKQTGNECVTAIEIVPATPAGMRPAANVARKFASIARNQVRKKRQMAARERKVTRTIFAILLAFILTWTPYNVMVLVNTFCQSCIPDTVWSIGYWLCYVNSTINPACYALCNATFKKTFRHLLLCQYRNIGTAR
Put plainly: cADDis cAMP sensor FLIPR assay, HEK293 hM4, decrease of forskolin-stimulated cAMP. The format is cell-based. The conditions noted are these: read-out: HEK-293, hM4, cAMP (48 h) / Gi pEC50 /slope (converted). The text has this: cADDis cAMP sensor FLIPR assay, HEK293 hM4, decrease of forskolin-stimulated cAMP on human M4 receptor (hM4)

Turning to `CCOC(=O)N1CC2(CCC(N3CCC(N(CC)C(C)=O)CC3)C2)C1` (stereo not drawn) [compound 6, compound-6], the EC50 is 0.407 nM.
As for `COC(=O)N1CCC(N2CCC(n3c(=O)n(C)c4ccccc43)CC2)CC1` [compound 110, compound-110], the EC50 was 0.646 nM.
In the case of `C[N+](C)(C)CC#CCN1CCCC1=O` [oxotremorine-M], the EC50 was 1.2 nM.
